Each compound was assayed on prokaryotic transcription-translation (E. coli S30 extract) (assay: In vitro assay for inhibition of prokaryotic transcription-translation (Promega E. coli S30 Extract System, pBESTluc luciferase readout)). Details: 2 uM compound, 2 h at 37° C., luciferase luminescence.
Type: biochemical
Description: In vitro assay for inhibition of prokaryotic transcription-translation [as described in the following references: 1. Zubay, G. (1973) In vitro synthesis of protein in microbial systems. Annu. Rev. Genet. 7, 267.87. 2. Zubay, G. (1980) The isolation and properties of CAP, the catabolite gene activator. Meth. Enzymol. 65, 856.77]. Antibiotic and compound dilutions: stock solutions of compound to be assayed at 2 μM are 80 μM in 40% DMSO. Stock solutions of compounds to be assayed at 10 μM are 400 μM in 40% DMSO.
Assay setup and protocol for Promega E. coli S30 Extract System
The assay is performed as follows: pipet 3.5 μl of 286 ng/μl template DNA (pBESTluc™) into assay wells. Negative control wells receive sdH2O only. Transfer 0.5 μl of 40× compound stock solution to assay wells. Positive control wells (no compound) receive 0.5 μl 40% DMSO sdH2O. Pipet 16 μl of master mix into assay wells. Incubate plate for two hours at 37° C. Rapidly chill the assay plate on ice for five minutes to stop the reaction. Add an equal volume (20 μl) of room temperature Steady-Glo® Luciferase assay reagent to all assay wells. Incubate 20 minutes and read light emitted with luminometer. Results are reported as % inhibition a 2 μM or 10 μM.

SMILES	% inh. @ 2 uM
CNC(=O)C[C@@H]1NC(=O)c2csc(n2)-c2ccc(-c3nc(NC(=O)N(CCCC(=O)O)[C@H]4CC[C@H](C(=O)O)CC4)cs3)nc2-c2csc(n2)-c2csc(n2)[C@H]([C@@H](O)c2ccccc2)NC(=O)CNC(=O)c2nc(sc2COC)C(C(C)C)NC(=O)c2nc1sc2C (stereo partly shown) [Compound 23]	2 uM = 79.8%
CNC(=O)C[C@@H]1NC(=O)c2csc(n2)-c2ccc(-c3nc(N(CCOCC(=O)O)C(=O)O[C@H]4CC[C@H](C(=O)O)CC4)cs3)nc2-c2csc(n2)-c2csc(n2)[C@H]([C@@H](O)c2ccccc2)NC(=O)CNC(=O)c2nc(sc2COC)C(C(C)C)NC(=O)c2nc1sc2C (stereo partly shown) [Compound 24]	2 uM = 70.3%
CNC(=O)C[C@@H]1NC(=O)c2csc(n2)-c2ccc(-c3nc(N(CCCCC(=O)O)C(=O)O[C@H]4CC[C@](CCCCC(=O)O)(C(=O)OC)CC4)cs3)nc2-c2csc(n2)-c2csc(n2)[C@H]([C@@H](O)c2ccccc2)NC(=O)CNC(=O)c2nc(sc2COC)C(C(C)C)NC(=O)c2nc1sc2C (stereo partly shown) [Compound 25]	2 uM = 83.7%
CNC(=O)C[C@@H]1NC(=O)c2csc(n2)-c2ccc(-c3nc(N(CCCCC(=O)O)C(=O)OC(CCCCC(=O)O)CCC(=O)O)cs3)nc2-c2csc(n2)-c2csc(n2)[C@H]([C@@H](O)c2ccccc2)NC(=O)CNC(=O)c2nc(sc2COC)C(C(C)C)NC(=O)c2nc1sc2C (stereo partly shown) [Compound 26]	2 uM = 68.2%
CNC(=O)C[C@@H]1NC(=O)c2csc(n2)-c2ccc(-c3nc(N(CCCCC(=O)O)C(=O)OCC4CC4C(=O)O)cs3)nc2-c2csc(n2)-c2csc(n2)[C@H]([C@@H](O)c2ccccc2)NC(=O)CNC(=O)c2nc(sc2COC)C(C(C)C)NC(=O)c2nc1sc2C (stereo partly shown) [Compound 27]	2 uM = 81.9%
CNC(=O)C[C@@H]1NC(=O)c2csc(n2)-c2ccc(-c3nc(N(CCCCC(CCC(=O)O)C(=O)O)C(=O)O[C@H]4CC[C@H](C(=O)O)CC4)cs3)nc2-c2csc(n2)-c2csc(n2)[C@H]([C@@H](O)c2ccccc2)NC(=O)CNC(=O)c2nc(sc2COC)C(C(C)C)NC(=O)c2nc1sc2C (stereo partly shown) [Compound 28]	2 uM = 77.0%
CNC(=O)C[C@@H]1NC(=O)c2csc(n2)-c2ccc(-c3nc(N(CCCCC(=O)O)C(=O)O[C@H]4CC[C@H](C(=O)O)C[C@@H]4CCCCC(=O)O)cs3)nc2-c2csc(n2)-c2csc(n2)[C@H]([C@@H](O)c2ccccc2)NC(=O)CNC(=O)c2nc(sc2COC)C(C(C)C)NC(=O)c2nc1sc2C (stereo partly shown) [Compound 29]	2 uM = 79.6%
CNC(=O)C[C@@H]1NC(=O)c2csc(n2)-c2ccc(-c3nc(N(CCCCC(=O)O)C(=O)OCCC(CCCCC(=O)O)C(=O)O)cs3)nc2-c2csc(n2)-c2csc(n2)[C@H]([C@@H](O)c2ccccc2)NC(=O)CNC(=O)c2nc(sc2COC)C(C(C)C)NC(=O)c2nc1sc2C (stereo partly shown) [Compound 30]	2 uM = 83.93%
CNC(=O)C[C@@H]1NC(=O)c2csc(n2)-c2ccc(-c3nc(N(CCCC(CCCCCCC(=O)O)C(=O)O)C(=O)O[C@H]4CC[C@H](C(=O)O)CC4)cs3)nc2-c2csc(n2)-c2csc(n2)[C@H]([C@@H](O)c2ccccc2)NC(=O)CNC(=O)c2nc(sc2COC)C(C(C)C)NC(=O)c2nc1sc2C (stereo partly shown) [Compound 31]	2 uM = 79.4%
CNC(=O)C[C@@H]1NC(=O)c2csc(n2)-c2ccc(-c3nc(N(CCCCC(=O)O)C(=O)OCC(CCCCC(=O)O)CC(=O)O)cs3)nc2-c2csc(n2)-c2csc(n2)[C@H]([C@@H](O)c2ccccc2)NC(=O)CNC(=O)c2nc(sc2COC)C(C(C)C)NC(=O)c2nc1sc2C (stereo partly shown) [Compound 32]	2 uM = 78.0%
CNC(=O)C[C@@H]1NC(=O)c2csc(n2)-c2ccc(-c3nc(N(CCCCC(=O)O)C(=O)O[C@H]4CC[C@@](CCCCC(=O)O)(C(=O)O)CC4)cs3)nc2-c2csc(n2)-c2csc(n2)[C@H]([C@@H](O)c2ccccc2)NC(=O)CNC(=O)c2nc(sc2COC)C(C(C)C)NC(=O)c2nc1sc2C (stereo partly shown) [Compound 33]	2 uM = 46.8%
CNC(=O)C[C@@H]1NC(=O)c2csc(n2)-c2ccc(-c3nc(N(CCCCC(=O)O)C(=O)O[C@]4(CCCCC(=O)O)CC[C@@H](C(=O)O)CC4)cs3)nc2-c2csc(n2)-c2csc(n2)[C@H]([C@@H](O)c2ccccc2)NC(=O)CNC(=O)c2nc(sc2COC)C(C(C)C)NC(=O)c2nc1sc2C (stereo partly shown) [Compound 34]	2 uM = 63.1%
CNC(=O)C[C@@H]1NC(=O)c2csc(n2)-c2ccc(-c3nc(NC(=O)OCCC(CCCCC(=O)O)C(=O)O)cs3)nc2-c2csc(n2)-c2csc(n2)[C@H]([C@@H](O)c2ccccc2)NC(=O)CNC(=O)c2nc(sc2COC)C(C(C)C)NC(=O)c2nc1sc2C (stereo partly shown) [Compound 35]	2 uM = 87.0%
